We go through two molecules from patent publication US10752601B2, “Crystal form and salt of 3-(3,5-dichloro-4-hydroxybenzoyl)-1,1-dioxo-2,3-dihydro-1,3-benzothiazole” (FUJI YAKUHIN CO., LTD., priority 2017, dated 2020).

Read-outs that look alike come from different tables or passages of the source.

The nature of series [1]: Test Example 1 (flowability and floodability), Carr index table. It counts as physicochemical. Here is the method: Test Example 1 (flowability and floodability): the compressibility was calculated by measuring bulk density and tap density of the crystals in Examples 1 and 2, and moreover, their dynamic bulk density, angle of repose, angle of spatula, uniformity, cohesion, angle of fall, angle of difference, and degree of dispersion were found, and flowability and floodability were evaluated using the Carr index table. (Table 1).

Series [2] can be described thus: Test Example 2 (absorption properties at time of oral administration to rat). It is filed as in vivo. The note with it: single oral, mean ± SD (n = 4); for concentration at 1 hr: read-out: Unchanged compound level in blood plasma 1 hr; for concentration at 2 hr: read-out: Unchanged compound level in blood plasma 2 hr; for concentration at 4 hr: read-out: Unchanged compound level in blood plasma 4 hr; for concentration at 8 hr: read-out: Unchanged compound level in blood plasma 8 hr; for concentration at 24 hr: read-out: Unchanged compound level in blood plasma 24 hr; for AUC(0-t): read-out: AUC0-24 hr. Here is the method: A test substance suspended in a 0.5% solution of methylcellulose was orally administered to a male CD (SD) rat (CHARLES RIVER LABORATORIES JAPAN, INC., 7 weeks old when used) in a dose of 30 and 300 mg/kg, and blood was then collected after 0.25, 0.5, 1, 2, 4, 8, and 24 hours. The level of unchanged compound in blood plasma was measured by HPLC (Table 2, Table 3), and pharmacokinetic parameters were calculated and absorption was evaluated (Table 4).

Where [3] appears, read: male, CD (SD), plasma, po, 30 mg/kg, 30 mg/kg.
The mark [4] stands for this setting: male, CD (SD), plasma, po, 300 mg/kg, 300 mg/kg.

As for `O=C(c1cc(Cl)c(O)c(Cl)c1)N1CS(=O)(=O)c2ccccc21` [Example 1, 3-(3,5-dichloro-4-hydroxybenzoyl)-1,1-dioxo-2,3-dihydro-1,3-benzothiazole], in series [1] (after pulverization), the Floodability index was 43 and the Flowability index was determined as 36. Moreover, in series [2] (setting [3]), the concentration at 1 hr was determined as 49.8 ± 22.7 µg/mL, the concentration at 2 hr worked out at 33 ± 11 µg/mL, the concentration at 4 hr is 26.6 ± 13 µg/mL and the concentration at 8 hr worked out at 20.4 ± 5.53 µg/mL. Also, in series [2] (setting [3]), the concentration at 24 hr stood at 1.16 ± 0.45 µg/mL and the AUC(0-t) amounted to 412 ± 123 µg·h/mL. The highest concentration (Cmax) in series [2] (male, CD (SD), plasma, po, 30 mg/kg, 30 mg/kg, read-out: Cmax) amounted to 59.2 ± 29.5 µg/mL. For the same molecule, in series [2] (30 mg/kg), the “Unchanged compound level in blood plasma 0.25 hr” value came to 38.18 ± 23.24 µg/mL, the “Unchanged compound level in blood plasma 0.5 hr” value is 58.51 ± 30.81 µg/mL and the Tmax turned out to be 0.63 ± 0.25 h. In series [2] (300 mg/kg), the “Unchanged compound level in blood plasma 0.25 hr” value is 174.78 ± 19.03 µg/mL, the “Unchanged compound level in blood plasma 0.5 hr” value was 275.88 ± 42.51 µg/mL, the “Unchanged compound level in blood plasma 1 hr” value stood at 275.53 ± 30.24 µg/mL and the “Unchanged compound level in blood plasma 2 hr” value was determined as 298.88 ± 35.19 µg/mL. Further, in series [2] (300 mg/kg), the “Unchanged compound level in blood plasma 4 hr” value was found to be 285.55 ± 26.38 µg/mL, the “Unchanged compound level in blood plasma 8 hr” value worked out at 267.85 ± 25.73 µg/mL, the “Unchanged compound level in blood plasma 24 hr” value was 73.31 ± 27.54 µg/mL and the AUC0-24 hr is 4923.74 ± 547.44 µg·h/mL. Besides, in series [2] (300 mg/kg), the Cmax was determined as 307.28 ± 26.20 µg/mL and the Tmax was determined as 4.00 ± 2.83 h.
In series [1] (after pulverization), `O=C(c1cc(Cl)c(O)c(Cl)c1)N1CS(=O)(=O)c2ccccc21` [Example 2, 3-(3,5-dichloro-4-hydroxybenzoyl)-1,1-dioxo-2,3-dihydro-1,3-benzothiazole] came in with a Floodability index of 49.5 and a Flowability index of 42. In series [1] (before pulverization), the Floodability index came to 57.5 and the Flowability index worked out at 65. Also, in series [2] (setting [4]), the concentration at 1 hr amounted to 140 ± 20.3 µg/mL, the concentration at 2 hr amounted to 264 ± 42.2 µg/mL, the concentration at 4 hr worked out at 314 ± 11.2 µg/mL and the concentration at 8 hr was 267 ± 38.4 µg/mL. Moreover, in series [2] (setting [4]), the concentration at 24 hr is 47.2 ± 19.9 µg/mL and the AUC(0-t) was 4530 ± 269 µg·h/mL. Moreover, in series [2] (male, CD (SD), plasma, po, 300 mg/kg, 300 mg/kg, read-out: Cmax), the Cmax is 316 ± 11.4 µg/mL. In addition, the Tmax in series [2] (male, CD (SD), plasma, po, 300 mg/kg, 300 mg/kg, read-out: Tmax) was 3.5 ± 1 h. Moreover, in series [2] (30 mg/kg), the “Unchanged compound level in blood plasma 0.25 hr” value turned out to be 12.45 ± 3.94 µg/mL, the “Unchanged compound level in blood plasma 0.5 hr” value was found to be 27.41 ± 4.71 µg/mL, the “Unchanged compound level in blood plasma 1 hr” value worked out at 37.38 ± 2.85 µg/mL and the “Unchanged compound level in blood plasma 2 hr” value worked out at 38.54 ± 0.91 µg/mL. Besides, in series [2] (30 mg/kg), the “Unchanged compound level in blood plasma 4 hr” value was determined as 23.23 ± 3.08 µg/mL, the “Unchanged compound level in blood plasma 8 hr” value amounted to 19.23 ± 2.51 µg/mL, the “Unchanged compound level in blood plasma 24 hr” value was 1.35 ± 0.73 µg/mL and the AUC0-24 hr turned out to be 371.97 ± 34.08 µg·h/mL. Moreover, in series [2] (30 mg/kg), the Cmax amounted to 39.03 ± 0.43 µg/mL and the Tmax amounted to 1.50 ± 0.58 h. For the same molecule, in series [2] (300 mg/kg), the “Unchanged compound level in blood plasma 0.25 hr” value was 39.18 ± 4.61 µg/mL and the “Unchanged compound level in blood plasma 0.5 hr” value is 79.93 ± 13.24 µg/mL.

For orientation: Cmax means the highest concentration seen after dosing. In general, Tmax refers to the time from dosing to the highest level.
